Measurements from patent US20230129485A1, “SYSTEM AND METHOD FOR DETERMINING MATERIAL PROPERTIES OF MOLECULAR SYSTEMS FROM AN AB-INITIO PARAMETERIZED FORCE-FIELD” (InterX, Inc., priority 2021, published 2023).
Where two headings read alike, the source gives them in different places.

How the values were obtained:
[1] = Free energy of hydration predicted with the QM-parameterized force field model (ARROW FF), classical MD and PIMD simulation in a water box; settings: for Arrow error: Table 5, error of Arrow PIMD8 hydration free energy vs experiment; for Arrow PIMD8 Error: absolute error vs Exp (hydration)
In short: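 Solute decoupled from solvent in a 32×32×32 Å3 water box (PME, 9 Å cutoffs), electrostatics, exchange-repulsion and dispersion switched off together over 15 lambda points with soft-coring. Steepest-descent minimization, 50 ps equilibration, 1 ns NPT production at 1 atm; classical and path-integral MD. Free energy from BAR and TI.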

[2] = Free energy of hydration predicted by General Amber Force Field (GAFF), from literature; settings: Table 5; error of GAFF hydration free energy vs experiment
[3] = Free energy of hydration predicted by polarizable AMOEBA force field, from literature; settings: Table 5; error of AMOEBA hydration free energy vs experiment
[4] = Free energy of hydration by COSMO implicit solvent model (MolPro ver. 2012); settings: absolute error vs Exp (hydration)
In short: (§1)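 The set is limited to molecules shared with the QM-parameterized force field calculations for the SMD, PCM and COSMO-RS models. SMD and PCM predictions came from an outside source, while COSMO solvation free energies were generated in-house with MolPro.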

[5] = Free energy of hydration by Solvation Model Dielectric (SMD) implicit solvent model; settings: absolute error vs Exp (hydration)
In short: as §1

[6] = Free energy of hydration by Polarizable Continuum Model (PCM); settings: absolute error vs Exp (hydration)
In short: as §1

[7] = Free energy of hydration by COSMO-RS
In short: as §1

[8] = Free energy of hydration by Free Energy Machine Learning Model (FML); settings: absolute error vs Exp (hydration)
Description: Machine learning models can be used for free energy determination.

[9] = experimental, cited from earlier work; for Exp (hydration): Table 5
[10] = Table 5; free energy of hydration, GAFF prediction taken from literature; cited from earlier work
[11] = Table 5; free energy of hydration, AMOEBA prediction taken from literature; cited from earlier work
[12] = implicit solvent model, values received; cited from earlier work
[13] = implicit solvent model, values received; cited from earlier work; remark: listed apart in the source
[14] = experimental, cited from earlier work
[15] = Free energy of solvation in cyclohexane predicted with the QM-parameterized force field model (ARROW FF), MD and PIMD; settings: Table 4; for CHEX Arrow MD Error: error of MD cyclohexane solvation free energy vs experiment; for CHEX Arrow PIMD4 Error: error of PIMD4 cyclohexane solvation free energy vs experiment
In short: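 Solute–cyclohexane interactions decoupled over 15 λ points with soft-core scaling, in MD and path-integral simulations under NPT at 1 atm using PME electrostatics and 9 Å cutoffs. Each window had 50 ps equilibration and 1 ns production; free energies from BAR and TI.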

[16] = CHEX/H2O partition coefficient (log D) predicted with the QM-parameterized force field model (ARROW FF)
In short: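 Cyclohexane/water partition coefficients were predicted by molecular simulation with a QM-parameterized force field, with bonded force constants and equilibrium values fitted to MP2/aug-cc-pVTZ energies. Solutes carried neutral functional groups, and results from four independent groups were averaged.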

[17] = CHEX/H2O partition coefficient, experimental, cited from earlier work; for logD Exp (logD): Table 4
[18] = Table 3, absolute error of MD hydration free energy vs experiment
[19] = Table 3, absolute error of PIMD8 hydration free energy vs experiment
[20] = Table 3, free energy of hydration
[21] = Table 3, free energy of solvation in cyclohexane
[22] = Table 4, error of MD hydration free energy vs experiment
[23] = Table 4, error of PIMD8 hydration free energy vs experiment
[24] = Table 4, neutral amino-acid analogues
[25] = Table 4, solvation free energy in cyclohexane

Row | Compound | water Arrow MD Error [1, 18] [kcal/mol] | water Arrow PIMD8 Error [1, 19] [kcal/mol] | Arrow error [1] [kcal/mol] | Arrow PIMD8 Error [1] [kcal/mol] | GAFF error [2] [kcal/mol] | AMOEBA error [3] [kcal/mol] | COSMO/Molpro Error [4] [kcal/mol] | SMD Error [5] [kcal/mol] | PCM Error [6] [kcal/mol] | COSMO-RS error [7] [kcal/mol] | FML error [8] [kcal/mol] | water Exp (hydration) [9, 20] [kcal/mol] | Exp (hydration) ([9]; free energy of hydration) [kcal/mol] | GAFF [10] [kcal/mol] | AMOEBA [11] [kcal/mol] | SMD free energy of hydration [12] [kcal/mol] | PCM free energy of hydration [13] [kcal/mol] | other results
1 | CNC(C)=O [N-Methylacetamide] | 1.52 | 0.49 | 0.49 | 0.49 | 1.61 | 1.34 | 3.10 | 1.40 | 3.40 | 0.27 | 1.89 | -10 | -10.00 | -8.39 | -8.66 | -8.60 | -6.60 | –
2 | c1cc[nH]c1 [Pyrrole] | 0.08 | 0.63 | 0.63 | 0.63 | 0.93 | 1.00 | 2.42 | – | – | 0.96 | 2.22 | -4.8 | -4.80 | -3.87 | -3.80 | – | – | –
3 | CCCCCCCCO [Octanol] | 1.40 | 0.22 | 0.22 | 0.22 | 1.11 | 1.44 | 2.57 | 0.69 | 0.79 | 0.18 | 0.02 | -4.09 | -4.09 | -5.20 | -2.65 | -3.40 | -3.30 | –
4 | CC(C)O [2-Propanol] | 1.26 | 0.00 | 0.00 | 0.00 | 1.34 | 0.41 | – | 0.32 | 1.52 | 0.00 | 0.29 | -4.62 | -4.62 | -3.28 | -4.21 | -4.30 | -3.10 | CHEX Exp (solvation) [14, 21]: -2.37 kcal/mol
5 | CC(C)C [Isobutane] | 0.93 | 0.02 | – | 0.02 | – | – | 2.28 | 0.28 | 2.48 | 0.14 | 0.12 | 2.28 | – | – | – | 2.00 | -0.20 | water Arrow MD Error [1, 22]: 0.93 kcal/mol; water Arrow PIMD8 Error [1, 23]: 0.02 kcal/mol; CHEX Arrow MD Error [15]: 0.33 kcal/mol; CHEX Arrow PIMD4 Error [15]: 0.10 kcal/mol; log D Arrow MD Error [16]: 0.44; log D Arrow PIMD Error [16]: 0.06; logD Arrow MD Error [16]: 0.44; logD Arrow PIMD Error [16]: 0.06; water Exp (hydration) [9, 24]: 2.28 kcal/mol; CHEX Exp (solvation) [14, 21]: -2.61 kcal/mol; CHEX Exp (solvation) [14, 25]: -2.61 kcal/mol; Exp (log D) ([17]; Table 3): 3.59; logD Exp (logD) [17]: 3.59
6 | CC [Ethane] | 0.42 | 0.12 | 0.12 | 0.12 | 0.79 | 0.06 | 2.19 | 0.01 | 1.89 | 0.02 | 0.85 | 1.79 | 1.79 | 2.58 | 1.73 | 1.80 | -0.10 | –
7 | CCC=O [propionaldehyde] | 0.30 | 0.25 | 0.45 | 0.25 | 0.02 | 0.35 | 4.76 | 0.33 | 0.17 | 0.26 | 0.05 | – | – | -3.41 | -3.08 | – | – | –
8 | CCC(N)=O [propionamide] | 1.21 | 0.17 | – | 0.17 | – | – | 3.50 | – | – | – | 2.21 | -9.4 | – | – | – | – | – | water Arrow MD Error [1, 22]: 1.21 kcal/mol; water Arrow PIMD8 Error [1, 23]: 0.17 kcal/mol; CHEX Arrow MD Error [15]: 0.48 kcal/mol; CHEX Arrow PIMD4 Error [15]: 0.34 kcal/mol; logD Arrow MD Error ([16]; Table 4, error of MD logD vs experiment): 0.54; logD Arrow PIMD Error ([16]; Table 4, error of PIMD logD vs experiment): 0.12; water Exp (hydration) [9, 24]: -9.4 kcal/mol; CHEX Exp (solvation) [14, 25]: -3.77 kcal/mol; logD Exp (logD) [17]: −4.13
